Read-outs that look alike come from different tables or passages of the source.
Assays:
[1] = format: in vivo, Male Wistar-Hannover rats
[2] = test system: SARS-CoV-2 virus; experiment: In vitro anti-SARS-CoV-2 virus assay (Vero E6 cells, viral RNA by PCR); format: cell-based
[3] = Vero E6 cells, compound final concentration 100 nM, PCR of supernatant viral RNA after 2-3 days

[2H]C([2H])([2H])C(C(NC(=O)C(F)(F)F)C(=O)N1C[C@H]2[C@@H]([C@H]1C(=O)N[C@H](C#N)C[C@@H]1CCNC1=O)C2(C)C)(C([2H])([2H])[2H])C([2H])([2H])[2H] (stereo partly shown) [Compound 32]
AUC0~∞ ([1]; rats, dose 10 mg/kg, plasma): 2011 ng·h/mL
Cmax ([1]; rats, dose 10 mg/kg, plasma): 1429 ng/mL
T1/2 ([1]; rats, dose 10 mg/kg, plasma): 3.5 h
Tmax ([1]; rats, dose 10 mg/kg, plasma): 2 h
Inhibition rate (virus replication) [2, 3]: 70.4%

[2H][C@](NC(=O)C(F)(F)F)(C(=O)N1C[C@H]2[C@@H]([C@H]1C(=O)N[C@H](C#N)C[C@@H]1CCNC1=O)C2(C)C)C(C)(C)C [Compound 16]
Cmax ([1]; rat, in vivo, 10 mg/kg): 1452 ng/mL
AUC0~∞ ([1]; rats, dose 10 mg/kg, plasma): 2294 ng·h/mL
T1/2 ([1]; rats, dose 10 mg/kg, plasma): 4 h
Tmax ([1]; rats, dose 10 mg/kg, plasma): 2 h
Inhibition rate (virus replication) [2, 3]: 72.6%

[2H][C@@](C#N)(C[C@@H]1CCNC1=O)NC(=O)[C@@H]1[C@@H]2[C@H](CN1C(=O)[C@@H](NC(=O)C(F)(F)F)C(C)(C)C)C2(C)C [Compound 2]
AUC0~∞ ([1]; rats, dose 10 mg/kg, plasma): 2325 ng·h/mL
Cmax ([1]; rats, dose 10 mg/kg, plasma): 1480 ng/mL
T1/2 ([1]; rats, dose 10 mg/kg, plasma): 4.2 h
Tmax ([1]; rats, dose 10 mg/kg, plasma): 2 h
Inhibition rate (virus replication) [2, 3]: 73.5%

[2H]C1([2H])C[C@@H](C[C@@H](C#N)NC(=O)[C@@H]2[C@@H]3[C@H](CN2C(=O)[C@@H](NC(=O)C(F)(F)F)C(C)(C)C)C3(C)C)C(=O)N1 [Compound 1]
AUC0~∞ ([1]; rats, dose 10 mg/kg, plasma): 1974 ng·h/mL
Cmax ([1]; rats, dose 10 mg/kg, plasma): 1393 ng/mL
T1/2 ([1]; rats, dose 10 mg/kg, plasma): 3.5 h
Tmax ([1]; rats, dose 10 mg/kg, plasma): 2 h
Inhibition rate (virus replication) [2, 3]: 71.5%

O=C(OC[C@H]1O[C@@H](OC(=O)c2cc(O)c(O)c(OC(=O)c3cc(O)c(O)c(O)c3)c2)[C@H](OC(=O)c2cc(O)c(O)c(OC(=O)c3cc(O)c(O)c(O)c3)c2)[C@@H](OC(=O)c2cc(O)c(O)c(OC(=O)c3cc(O)c(O)c(O)c3)c2)[C@@H]1OC(=O)c1cc(O)c(O)c(OC(=O)c2cc(O)c(O)c(O)c2)c1)c1cc(O)c(O)c(OC(=O)c2cc(O)c(O)c(O)c2)c1 [Control, tannic acid, reference compound]
inhibition at 0.1 µM ([2]; Severe acute respiratory syndrome coronavirus 2, Vero C1008, read-out: Inhibition rate (virus replication)): 54.1%

PF-07321332 [reference compound]
Inhibition rate (virus replication) ([2]; 0.1 µM): 72.9%

Reference: patent US20250002529A1, “NOVEL […] COMPOUNDS, PREPARATION METHODS, COMPOSITIONS AND APPLICATIONS” (Guangzhou Anobri Pharmaceutical Co. Ltd., priority 2021, published 2025)
